According to the supplement of paper PMC10307832:

How the values were obtained:
Assay in all cases: relative viability (nuclei count vs DMSO), 5 days (fraction); higher = more cells survive
[1] = compound: C(C(=O)C(=O)O)Br [Bromopyruvate] + CC(=O)Nc1cccc(-n2c(=O)n(C3CC3)c(=O)c3c(Nc4ccc(I)cc4F)n(C)c(=O)c(C)c32)c1 [Trametinib] (partner 0.02 µM)
How it was run: (§1)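 Nuclei were stained with Hoechst during a one-step fixation (final 0.05% Triton X-100, 1% formaldehyde, 1 ug/ml Hoechst) carried out 5 days after dosing, then counted on 4× images. The cells, lung cancer lines in 1536-well plates, had been dosed by pin tool the day after seeding with one drug alone or a fixed anchor-drug dose plus five library-drug doses (not always all listed) in √10 steps. Relative viability is the nuclei count in treated wells divided by that in vehicle wells, and each value is the median of duplicate plates.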

[2] = compound: C(C(=O)C(=O)O)Br [Bromopyruvate] + CC(=O)c1c(C)c2cnc(Nc3ccc(N4CCNCC4)cn3)nc2n(C2CCCC2)c1=O [Palbociclib] (partner 0.5 µM)
How it was run: as §1

[3] = compound: C(C(=O)C(=O)O)Br [Bromopyruvate] + CC1(C)CCC(c2ccc(Cl)cc2)=C(CN2CCN(c3ccc(C(=O)NS(=O)(=O)c4ccc(N[C@H](CCN5CCOCC5)CSc5ccccc5)c(S(=O)(=O)C(F)(F)F)c4)cc3)CC2)C1 [Navitoclax] (partner 0.5 µM)
How it was run: as §1

[4] = compound: C(C(=O)C(=O)O)Br [Bromopyruvate] + C[C@]1(O)C[C@@H](c2nc(-c3ccc4ccc(-c5ccccc5)nc4c3)c3c(N)nccn32)C1 [Linsitinib] (partner 1 µM)
How it was run: as §1

Cell Line | relative viability ([1]; first compound 1 µM) | relative viability ([1]; first compound 3.162 µM) | relative viability ([1]; first compound 10 µM) | relative viability ([1]; first compound 31.62 µM) | relative viability ([1]; first compound 100 µM) | relative viability ([2]; first compound 1 µM) | relative viability ([2]; first compound 3.162 µM) | relative viability ([2]; first compound 10 µM) | relative viability ([2]; first compound 31.62 µM) | relative viability ([2]; first compound 100 µM) | relative viability ([3]; first compound 1 µM) | relative viability ([3]; first compound 3.162 µM) | relative viability ([3]; first compound 10 µM) | relative viability ([3]; first compound 31.62 µM) | relative viability ([3]; first compound 100 µM) | relative viability ([4]; first compound 1 µM) | relative viability ([4]; first compound 3.162 µM) | relative viability ([4]; first compound 10 µM) | relative viability ([4]; first compound 31.62 µM) | relative viability ([4]; first compound 100 µM)
HCC-366 | 0.361 | 0.322 | 0.41 | 0.359 | 0.322 | 0.405 | 0.361 | 0.43 | 0.395 | 0.38 | 1.04 | 1.05 | 1.14 | 1.04 | 1.03 | 0.615 | 0.848 | 0.765 | 0.769 | 0.54
HCC-827 | 0.51 | 0.542 | 0.579 | 0.551 | 0.568 | 0.434 | 0.542 | 0.472 | 0.541 | 0.517 | 1.02 | 1 | 0.99 | 1.12 | 0.996 | 1.01 | 0.932 | 0.926 | 0.962 | 0.981
HOP-62 | 0.405 | 0.343 | 0.372 | 0.408 | 0.485 | 0.432 | 0.443 | 0.416 | 0.343 | 0.341 | 1.05 | 0.961 | 1.12 | 1.08 | 0.899 | 1.04 | 1.02 | – | 0.368 | 0.24
IA-LM | – | – | – | – | – | – | – | – | – | – | 0.798 | 0.723 | 0.654 | 0.763 | 0.818 | 0.534 | 0.576 | 0.675 | 0.674 | 0.674
LC-2-ad | 0.892 | 0.904 | 0.872 | 0.958 | 0.945 | 0.528 | 0.487 | 0.466 | 0.488 | 0.499 | 0.436 | 0.404 | 0.35 | 0.459 | 0.476 | 0.825 | 0.93 | 0.869 | 0.842 | 0.909
LCLC-97TM1 | 0.193 | 0.188 | 0.2 | 0.165 | 0.277 | 0.203 | 0.21 | 0.276 | 0.239 | 0.214 | – | – | 0.538 | 0.492 | 0.316 | – | – | 0.22 | 0.198 | 0.162
LCLC-103H | 0.681 | 0.692 | 0.696 | 0.693 | 0.767 | 0.505 | 0.486 | 0.455 | 0.415 | 0.528 | – | – | – | – | – | 1.28 | 1.07 | 1 | 1.08 | 1.14
LK-2 | 0.742 | 0.92 | 0.872 | 0.782 | 0.519 | 0.688 | 0.858 | 0.797 | 0.637 | 0.678 | 0.9 | 0.85 | 0.818 | 0.888 | 0.772 | 0.474 | 0.674 | 0.541 | 0.509 | 0.524
LOU-NH91 | 0.79 | 0.761 | 0.799 | 0.826 | 0.866 | 0.53 | 0.545 | 0.494 | 0.544 | 0.587 | 0.835 | 0.611 | 0.759 | 0.84 | 0.783 | 0.89 | 0.964 | 0.944 | 1.04 | 1.1
NCI-H358 | 0.145 | 0.132 | 0.139 | 0.128 | 0.133 | 0.113 | 0.132 | 0.168 | 0.127 | 0.142 | – | – | – | – | – | 0.748 | 0.77 | 0.81 | 0.62 | 0.903
NCI-H522 | 0.697 | 0.671 | 0.778 | 0.92 | 0.757 | 1.02 | 1.03 | 1 | 1.02 | 1.1 | – | – | – | – | – | – | – | – | – | –
NCI-H596 | 0.743 | 0.84 | 0.789 | 0.74 | 0.845 | – | – | – | – | – | 0.871 | 0.964 | 1.1 | 0.877 | 1.07 | 0.998 | 0.991 | 1.18 | 1.03 | 1.19
NCI-H650 | 0.971 | 1.02 | 0.928 | 0.955 | 0.991 | 0.385 | 0.306 | 0.316 | 0.338 | 0.335 | – | – | – | – | – | 0.756 | 0.976 | 0.871 | 0.921 | 1.03
NCI-H661 | 0.546 | 0.588 | 0.579 | 0.523 | 0.603 | 0.401 | 0.387 | 0.378 | 0.403 | 0.428 | – | – | – | – | – | 0.556 | 0.631 | 0.591 | 0.727 | 0.676
NCI-H1299 | – | – | – | – | – | – | – | – | – | – | 1.04 | 1.07 | 1.03 | 1.03 | 1.02 | 0.994 | 1.01 | 1.04 | 1.02 | 0.968
NCI-H1563 | – | – | – | – | – | – | – | – | – | – | – | – | – | – | – | 1.19 | 1.42 | 1.16 | 1.23 | 1.07
NCI-H1648 | 0.349 | 0.413 | 0.472 | 0.545 | 0.482 | 0.211 | 0.242 | 0.283 | 0.298 | 0.328 | – | – | – | – | – | – | – | – | – | –
NCI-H1650 | 0.548 | 0.482 | 0.643 | 0.572 | 0.515 | 0.328 | 0.328 | 0.309 | 0.368 | 0.345 | 1.09 | 1.31 | 1.42 | 1.47 | 1.19 | – | – | – | – | –
NCI-H1703 | – | – | – | – | – | – | – | – | – | – | 1.06 | 1.22 | 1.42 | 1.34 | 1.16 | 0.602 | 1.08 | 0.709 | 0.678 | 0.655
NCI-H2170 | 0.918 | 0.923 | 0.99 | 0.902 | 0.925 | 0.365 | 0.421 | 0.389 | 0.396 | 0.411 | 0.549 | 0.533 | 0.577 | 0.541 | 0.57 | – | – | – | – | –
NCI-H2342 | 0.757 | 0.912 | 0.779 | 0.696 | 0.736 | 0.487 | 0.55 | 0.476 | 0.485 | 0.458 | – | – | – | – | – | – | – | – | – | –
SW 900 | 0.865 | 0.76 | 0.92 | 0.729 | 0.739 | 0.524 | 0.486 | 0.536 | 0.589 | 0.5 | – | – | – | – | – | – | – | – | – | –
